# Like-named read-outs stand apart in the source and are kept apart here.
# What was measured:
# [1] = for Cmax/dose / Tmax: iv
# clinical = conditions: human, in vivo, iv
Compound,"AUC/dose ([1]; human, in vivo)","CL or CL/F ([1]; human, in vivo)","T1/2 (terminal elimination half-life) ([1]; human, in vivo)","Cmax/dose ([1]; human, in vivo)","Tmax ([1]; human, in vivo)",V or V/F ([1]; in vivo),trough concentrations ([1]; in vivo),further results
"CCc1c2c(nc3ccc(OC(=O)N4CCC(NCCCCC(=O)O)CC4)cc13)-c1cc3c(c(=O)n1C2)COC(=O)C3(O)CC (stereo not drawn) [APC, 7-ethyl-10-(4-N-(5-aminopentanoic acid)-1-piperidine)carbonyloxycamptothecin]",13 (73) h*ng/mL/mg/m^2,96 (49) L/h/m^2,58 (8) d,0.08 (118) ng/mL/mg/m^2,20 (41) h,170 L/m^2,detectable,"terminal disposition half-life ([1]; human, in vivo): 53 days"
"CCc1c2c(nc3ccc(OC(=O)N4CCC(N)CC4)cc13)-c1cc3c(c(=O)n1C2)COC(=O)[C@]3(O)CC [NPC, 7-ethyl-10-(4-amino-1-piperidino) carbonyloxycamptothecin]",,,,,,,,plasma concentrations ([1]; in vivo): near the limit of quantitation
"CCc1c2c(nc3ccc(O[C@@H]4O[C@H](C(=O)O)[C@@H](O)[C@H](O)[C@H]4O)cc13)-c1cc3c(c(=O)n1C2)COC(=O)[C@]3(O)CC [SN-38-G, SN-38-glucuronide]",,,,,,,,"T1/2 (terminal elimination half-life) ([1]; Mean (%CV), plasma, 76 patients, after etirinotecan pegol 58 to 245 mg/m^2): 61 (37) d; trough concentrations ([1]; after etirinotecan pegol dosing with all 3 schedules): detectable; terminal disposition half-life ([1]; plasma, patients, after etirinotecan pegol administration): 61 days"
CCc1c2c(nc3ccc(O)cc13)-c1cc3c(c(=O)n1C2)COC(=O)[C@]3(O)CC [SN-38],8 (52) h*ng/mL/mg/m^2,170 (59) L/h/m^2,50 (28) d,0.02 (55) ng/mL/mg/m^2,13 (170) h,27 L/m^2,detectable,
"CCc1c2c(nc3ccc(OC(=O)N4CCC(N5CCCCC5)CC4)cc13)-c1cc3c(c(=O)n1C2)COC(=O)[C@]3(O)CC [irinotecan, reference compound]",,,,,,,detectable,Tmax (clinical): 0.167 days

# — PMC4104496 (Clinical cancer research : an official journal of the …, 2012)
